{"source": "patent US7964735B2", "about": "“Insecticidal 3-acylaminobenzanilides” (Bayer Cropscience AG, priority 2005, dated 2011)"}
{"tested_on": "third stage larvae of Spodoptera litura", "assay": "Test to larvae of Spodoptera litura (leaf immersion)", "assay_type": "in vivo", "settings": "efficacious component concentration 20 ppm; batata leaves immersed; 25° C.; after 7 days; average of two dishes", "procedure": "(§1) • Sample Solution Preparation • Solvent: dimethylformamide 3 part by weight • Emulsifier: polyoxyethylene alkyl phenyl ether 1 part by weight\n(§2) To prepare a proper active compound, the active compound 1 part by weight was mixed with the above-mentioned solvent containing the above-mentioned emulsifier and the mixture was diluted with water to a prescribed concentration.\nLeaves of batata were immersed in the sample solution diluted with water to a prescribed concentration and then the solution was dried out by air and the resulting leaves were put in a laboratory dish and 10 third stage larvae of Spodoptera litura were released and put in a greenhouse at a temperature 25° C. and the leaves of batata were added on second day and fourth day and the number of dead larvae was investigated after 7 days and the ratio of the dead larvae was calculated.\nThe results were the averages of two laboratory dishes for respective 1 group in this test.", "units": {"insecticidal ratio (ratio of the dead larvae)": "%"}}
{"smiles": "CCc1cc(C(F)(C(F)(F)F)C(F)(F)F)cc(C)c1NC(=O)c1cccc(NC(=O)c2cnccc2C(F)(F)F)c1", "note": "[Compound 1, 3-[4-(trifluoromethyl)nicotinyl]amino-N-(2-ethyl-6-methyl-4-heptafluoroisopropylphenyl)benzamide]", "insecticidal ratio (ratio of the dead larvae)": 100}
{"smiles": "CCc1cc(C(F)(C(F)(F)F)C(F)(F)F)cc(C)c1NC(=O)c1cccc(NC(=O)c2ccc(Cl)nc2)c1", "note": "[Compound 3]", "insecticidal ratio (ratio of the dead larvae)": 100}
{"smiles": "CCc1cc(C(F)(C(F)(F)F)C(F)(F)F)cc(C)c1NC(=O)c1cccc(NC(=O)c2ncc(C(F)(F)F)cc2Cl)c1", "note": "[Compound 13]", "insecticidal ratio (ratio of the dead larvae)": 100}
{"smiles": "CCc1cc(C(F)(C(F)(F)F)C(F)(F)F)cc(C)c1NC(=O)c1cccc(NC(=O)c2cc(Cl)sc2Cl)c1", "note": "[Compound 24]", "insecticidal ratio (ratio of the dead larvae)": 100}
{"smiles": "CCc1cc(C(F)(C(F)(F)F)C(F)(F)F)cc(C)c1NC(=O)c1cccc(NC(=O)c2cccs2)c1", "note": "[Compound 30]", "insecticidal ratio (ratio of the dead larvae)": 100}
{"smiles": "CCc1cc(C(F)(C(F)(F)F)C(F)(F)F)cc(C)c1NC(=O)c1cccc(NC(=O)c2ccco2)c1", "note": "[Compound 32]", "insecticidal ratio (ratio of the dead larvae)": 100}
{"smiles": "CCc1cc(C(F)(C(F)(F)F)C(F)(F)F)cc(C)c1NC(=O)c1cccc(NC(=O)c2snnc2C)c1", "note": "[Compound 35]", "insecticidal ratio (ratio of the dead larvae)": 100}
{"smiles": "CCc1cc(C(F)(C(F)(F)F)C(F)(F)F)cc(C)c1NC(=O)c1cccc(NC(=O)c2ccccc2I)c1", "note": "[Compound 36]", "insecticidal ratio (ratio of the dead larvae)": 100}
{"smiles": "Cc1cc(C(F)(C(F)(F)F)C(F)(F)F)cc(I)c1NC(=O)c1cccc(NC(=O)c2ccccc2Cl)c1", "note": "[Compound 37]", "insecticidal ratio (ratio of the dead larvae)": 100}
{"smiles": "CCc1cc(C(F)(C(F)(F)F)C(F)(F)F)cc(C)c1NC(=O)c1cccc(NC(=O)c2ccccc2Cl)c1", "note": "[Compound 38]", "insecticidal ratio (ratio of the dead larvae)": 100}
{"smiles": "CCc1cc(C(F)(C(F)(F)F)C(F)(F)F)cc(C)c1NC(=O)c1cccc(NC(=O)c2ccc(OC(F)(F)F)cc2)c1", "note": "[Compound 39]", "insecticidal ratio (ratio of the dead larvae)": 100}
{"smiles": "CCc1cc(C(F)(C(F)(F)F)C(F)(F)F)cc(C)c1NC(=O)c1cccc(NC(=O)c2ccccc2Br)c1", "note": "[Compound 40]", "insecticidal ratio (ratio of the dead larvae)": 100}
{"smiles": "CCc1cc(C(F)(C(F)(F)F)C(F)(F)F)cc(C)c1NC(=O)c1cccc(NC(=O)c2cccc(Br)c2)c1", "note": "[Compound 41]", "insecticidal ratio (ratio of the dead larvae)": 100}
{"smiles": "CCc1cc(C(F)(C(F)(F)F)C(F)(F)F)cc(C)c1NC(=O)c1cccc(NC(=O)c2ccc(Br)cc2)c1", "note": "[Compound 42]", "insecticidal ratio (ratio of the dead larvae)": 100}
{"smiles": "CCc1cc(C(F)(C(F)(F)F)C(F)(F)F)cc(C)c1NC(=O)c1cccc(NC(=O)c2ccc(Cl)c(Cl)c2)c1", "note": "[Compound 43]", "insecticidal ratio (ratio of the dead larvae)": 100}
{"smiles": "CCc1cc(C(F)(C(F)(F)F)C(F)(F)F)cc(C)c1NC(=O)c1cccc(NC(=O)c2ccc(Cl)cc2Cl)c1", "note": "[Compound 44]", "insecticidal ratio (ratio of the dead larvae)": 100}
{"smiles": "CCc1cc(C(F)(C(F)(F)F)C(F)(F)F)cc(C)c1NC(=O)c1cccc(NC(=O)c2cc(Cl)cc(Cl)c2)c1", "note": "[Compound 45]", "insecticidal ratio (ratio of the dead larvae)": 100}
{"smiles": "CCc1cc(C(F)(C(F)(F)F)C(F)(F)F)cc(C)c1NC(=O)c1cccc(NC(=O)c2c(Cl)cccc2Cl)c1", "note": "[Compound 46]", "insecticidal ratio (ratio of the dead larvae)": 100}
{"smiles": "CCc1cc(C(F)(C(F)(F)F)C(F)(F)F)cc(C)c1NC(=O)c1cccc(NC(=O)c2cccc(Cl)c2Cl)c1", "note": "[Compound 47]", "insecticidal ratio (ratio of the dead larvae)": 100}
{"smiles": "CCc1cc(C(F)(C(F)(F)F)C(F)(F)F)cc(C)c1NC(=O)c1cccc(NC(=O)c2cc(Cl)ccc2Cl)c1", "note": "[Compound 48]", "insecticidal ratio (ratio of the dead larvae)": 100}
{"smiles": "CCc1cc(C(F)(C(F)(F)F)C(F)(F)F)cc(C)c1NC(=O)c1cccc(NC(=O)c2ccc(C(F)(F)F)cc2)c1", "note": "[Compound 49]", "insecticidal ratio (ratio of the dead larvae)": 100}
{"smiles": "CCc1cc(C(F)(C(F)(F)F)C(F)(F)F)cc(C)c1NC(=O)c1cccc(NC(=O)c2ccccc2C(F)(F)F)c1", "note": "[Compound 51]", "insecticidal ratio (ratio of the dead larvae)": 100}
{"smiles": "CCc1cc(C(F)(C(F)(F)F)C(F)(F)F)cc(C)c1NC(=O)c1cccc(NC(=O)c2c(F)cc(F)cc2F)c1", "note": "[Compound 52]", "insecticidal ratio (ratio of the dead larvae)": 100}
{"smiles": "CCc1cc(C(F)(C(F)(F)F)C(F)(F)F)cc(C)c1NC(=O)c1cccc(NC(=O)c2ccccc2[N+](=O)[O-])c1", "note": "[Compound 53]", "insecticidal ratio (ratio of the dead larvae)": 100}
{"smiles": "CCc1cc(C(F)(C(F)(F)F)C(F)(F)F)cc(C)c1NC(=O)c1cccc(NC(=O)c2c(F)cccc2F)c1", "note": "[Compound 54]", "insecticidal ratio (ratio of the dead larvae)": 100}
{"smiles": "CCc1cc(C(F)(C(F)(F)F)C(F)(F)F)cc(C)c1NC(=O)c1cccc(NC(=O)c2cccc(F)c2F)c1", "note": "[Compound 55]", "insecticidal ratio (ratio of the dead larvae)": 100}
{"smiles": "CCc1cc(C(F)(C(F)(F)F)C(F)(F)F)cc(C)c1NC(=O)c1cccc(NC(=O)c2ccc(F)cc2F)c1", "note": "[Compound 56]", "insecticidal ratio (ratio of the dead larvae)": 100}
{"smiles": "CCc1cc(C(F)(C(F)(F)F)C(F)(F)F)cc(C)c1NC(=O)c1cccc(NC(=O)c2cccc(Cl)c2)c1", "note": "[Compound 58]", "insecticidal ratio (ratio of the dead larvae)": 100}
{"smiles": "CCc1cc(C(F)(C(F)(F)F)C(F)(F)F)cc(C)c1NC(=O)c1cccc(NC(=O)c2ccc(Cl)cc2)c1", "note": "[Compound 59]", "insecticidal ratio (ratio of the dead larvae)": 100}
{"smiles": "CCc1cc(C(F)(C(F)(F)F)C(F)(F)F)cc(C)c1NC(=O)c1cccc(NC(=O)c2ccc(OC)cc2)c1", "note": "[Compound 60]", "insecticidal ratio (ratio of the dead larvae)": 100}
{"smiles": "CCc1cc(C(F)(C(F)(F)F)C(F)(F)F)cc(C)c1NC(=O)c1cccc(NC(=O)c2ccc(F)cc2)c1", "note": "[Compound 61]", "insecticidal ratio (ratio of the dead larvae)": 100}
{"smiles": "CCc1cc(C(F)(C(F)(F)F)C(F)(F)F)cc(C)c1NC(=O)c1cccc(NC(=O)c2cccc(F)c2)c1", "note": "[Compound 62]", "insecticidal ratio (ratio of the dead larvae)": 100}
{"smiles": "CCc1cc(C(F)(C(F)(F)F)C(F)(F)F)cc(C)c1NC(=O)c1cccc(NC(=O)c2ccccc2F)c1", "note": "[Compound 63]", "insecticidal ratio (ratio of the dead larvae)": 100}
{"smiles": "CCc1cc(C(F)(C(F)(F)F)C(F)(F)F)cc(C)c1NC(=O)c1cccc(NC(=O)c2ccc(C)cc2)c1", "note": "[Compound 64]", "insecticidal ratio (ratio of the dead larvae)": 100}
{"smiles": "CCc1cc(C(F)(C(F)(F)F)C(F)(F)F)cc(C)c1NC(=O)c1cccc(NC(=O)c2ccccc2C)c1", "note": "[Compound 66]", "insecticidal ratio (ratio of the dead larvae)": 100}
{"smiles": "Cc1cc(C(F)(C(F)(F)F)C(F)(F)F)cc(C)c1NC(=O)c1cccc(NC(=O)c2c(F)cccc2F)c1", "note": "[Compound 72]", "insecticidal ratio (ratio of the dead larvae)": 100}
{"smiles": "Cc1cc(C(F)(C(F)(F)F)C(F)(F)F)cc(C)c1NC(=O)c1cccc(NC(=O)c2ccc(Cl)cc2)c1", "note": "[Compound 77]", "insecticidal ratio (ratio of the dead larvae)": 100}
{"smiles": "Cc1cc(C(F)(C(F)(F)F)C(F)(F)F)cc(C)c1NC(=O)c1cccc(NC(=O)c2ccccc2)c1", "note": "[Compound 88]", "insecticidal ratio (ratio of the dead larvae)": 100}
{"smiles": "Cc1cc(C(F)(C(F)(F)F)C(F)(F)F)cc(C)c1NC(=O)c1cccc(NC(=O)c2ccccc2Cl)c1F", "note": "[Compound 134]", "insecticidal ratio (ratio of the dead larvae)": 100}
{"smiles": "Cc1cc(C(F)(C(F)(F)F)C(F)(F)F)cc(C)c1NC(=O)c1cccc(NC(=O)c2ccc(Cl)cc2)c1F", "note": "[Compound 139]", "insecticidal ratio (ratio of the dead larvae)": 100}
{"tested_on": "organic phosphorus agent- and carbamate agent-resistant Myzus persicasypii", "assay": "Test to organic phosphorus agent- and carbamate agent-resistant Myzus persicasypii (spray on eggplant)", "assay_type": "in vivo", "settings": "efficacious component concentration 500 ppm; sprayed on eggplant; 28° C.; after 7 days from spraying", "procedure": "as §1, §2\n30 grown organic phosphorus agent- and carbamate agent-resistant Myzus persicasypii were inoculated in each vinyl pot with 6 cm diameter in which eggplant seeding was done and after 1 day from the inoculation, the above produced active compound diluted with water to have a prescribed concentration was sufficiently sprayed by a spray gun. After the spraying, the vinyl pots were left in a greenhouse at 28° C. and the insect extermination ratio was calculated after 7 days from spraying. The test was repeated two times.", "units": {"insecticidal ratio (insect extermination ratio)": "%"}}
{"smiles": "CCc1cc(C(F)(C(F)(F)F)C(F)(F)F)cc(C)c1NC(=O)c1cccc(NC(=O)c2cnccc2C(F)(F)F)c1", "note": "[Compound 1, 3-[4-(trifluoromethyl)nicotinyl]amino-N-(2-ethyl-6-methyl-4-heptafluoroisopropylphenyl)benzamide]", "insecticidal ratio (insect extermination ratio)": 100}
{"smiles": "CCc1cc(C(F)(C(F)(F)F)C(F)(F)F)cc(C)c1NC(=O)c1cccc(NC(=O)c2ccccc2Cl)c1", "note": "[Compound 57]", "insecticidal ratio (insect extermination ratio)": 100}
{"smiles": "CCc1cc(C(F)(C(F)(F)F)C(F)(F)F)cc(C)c1NC(=O)c1cccc(NC(=O)c2cccc(Cl)c2)c1", "note": "[Compound 58]", "insecticidal ratio (insect extermination ratio)": 100}
{"smiles": "CCc1cc(C(F)(C(F)(F)F)C(F)(F)F)cc(C)c1NC(=O)c1cccc(NC(=O)c2ccc(F)cc2)c1", "note": "[Compound 61]", "insecticidal ratio (insect extermination ratio)": 100}
{"smiles": "CCc1cc(C(F)(C(F)(F)F)C(F)(F)F)cc(C)c1NC(=O)c1cccc(NC(=O)c2ccccc2F)c1", "note": "[Compound 63]", "insecticidal ratio (insect extermination ratio)": 100}
{"smiles": "Cc1cc(C(F)(C(F)(F)F)C(F)(F)F)cc(C)c1NC(=O)c1cccc(NC(=O)c2ccc(Cl)cc2)c1F", "note": "[Compound 139]", "insecticidal ratio (insect extermination ratio)": 100}
{"tested_on": "not given", "assay": "not given", "settings": "not given", "units": {"melting point": "°C"}}
{"smiles": "Cc1cc(C(F)(C(F)(F)F)C(F)(F)F)cc(C)c1NC(=O)c1cccc(NC(=O)c2ccccc2Cl)c1", "note": "[Compound 75, 3-(2-chlorobenzoyl)amino-N-(2,6-dimethyl-4-heptafluoroisopropylphenyl)benzamide]", "melting point": "141 to 145"}
